Laboratory results reported in patent publication US10858340B2, “Crystal of salt of quinazoline derivative” (CHIA TAI TIANQING PHARMACEUTICAL GROUP CO., LTD., priority 2016, dated 2020).

Columns and labels:
[1] = Stability test of crystal: accelerated test; assay type: physicochemical; conditions: 40° C. ± 2° C., relative humidity of 75% ± 5%
Protocol: (§1) The XRPD was measured using a PHASER BRUKER D2 X-ray powder diffractometer with a wavelength of 1.54060 Å. The melting point was measured using an YRT-3 melting point apparatus (manufactured by Tianjin University). The content was determined by HPLC with reference to Chinese Pharmacopoeia, 2010 edition, Part II, Appendix V D, using octadecylsilane bonded silica gel as a filler, and ammonium formate buffer solution and acetonitrile as a mobile phase; detection wavelength of 260 nm and column temperature of 40° C. The moisture content was determined using a METTLER TOLEDO DL31 Karl Fischer moisture analyzer.
(§2) The conditions and methods for the stability test of crystal were performed according to the requirements of the Chinese Pharmacopoeia (2010 edition), Part II, Appendix XIX C, Guidelines for Stability Tests of Active Pharmaceutical Ingredients and Pharmaceutical Preparations. The crystalline Form A prepared in Example 1 was used as a test sample. A medicinal low-density polyethylene bag was used as an inner package for a sample, and polyester/aluminum/polyethylene composite bag for pharmaceutical packaging was used as an outer packaging material for a sample.

[2] = Stability test of crystal: long-term test; assay type: physicochemical; conditions: 25° C. ± 2° C., relative humidity of 60% ± 10%
Protocol: as §1, §2

## C=CC(=O)N1CCC(Nc2cc3c(Nc4ccc(F)c(Cl)c4)ncnc3cc2OC)CC1
[1]; 0 month
  Content of the crystalline Form A of the maleate of the compound of Formula (I) (HPLC): 99.4%
  Moisture: 0.17%
[1]; 1 month
  Content of the crystalline Form A of the maleate of the compound of Formula (I) (HPLC): 99.3%
  Moisture: 0.19%
[1]; 2 months
  Content of the crystalline Form A of the maleate of the compound of Formula (I) (HPLC): 99.2%
  Moisture: 0.18%
[1]; 3 months
  Content of the crystalline Form A of the maleate of the compound of Formula (I) (HPLC): 99.2%
  Moisture: 0.19%
[1]; 6 months
  Content of the crystalline Form A of the maleate of the compound of Formula (I) (HPLC): 99.3%
  Moisture: 0.20%
[2]; 0 month
  Content of the crystalline Form A of the maleate of the compound of Formula (I) (HPLC): 99.4%
  Moisture: 0.17%
[2]; 3 months
  Content of the crystalline Form A of the maleate of the compound of Formula (I) (HPLC): 99.3%
  Moisture: 0.19%
[2]; 6 months
  Content of the crystalline Form A of the maleate of the compound of Formula (I) (HPLC): 99.4%
  Moisture: 0.20%
[2]; 9 months
  Content of the crystalline Form A of the maleate of the compound of Formula (I) (HPLC): 99.2%
  Moisture: 0.21%
[2]; 12 months
  Content of the crystalline Form A of the maleate of the compound of Formula (I) (HPLC): 99.4%
  Moisture: 0.22%
[2]; 18 months
  Content of the crystalline Form A of the maleate of the compound of Formula (I) (HPLC): 99.2%
  Moisture: 0.24%
